From ChEMBL document CHEMBL1255272, “In vitro activity of AR-709 against Streptococcus pneumoniae” (2008) come the findings set out here.

As usually defined, the MIC50 is an inhibitory concentration at the 50% level, which refers to growth in some studies and to a panel of isolates in others. In general, MIC90 refers to an inhibitory concentration at the 90% level, which refers to growth in some studies and to a panel of isolates in others. In general, MIC refers to the smallest concentration in the dilution series that meets the test's criterion for growth inhibition. Lower therefore signals inhibition by little substance.

What all share (assay type): functional
For experiment [1], the system named is Streptococcus pneumoniae. Description: Antibacterial activity against penicillin susceptible Streptococcus pneumoniae by microdilution method. A general note: Dilution methods test growth across graded concentrations, often in twofold steps.
In experiment [2] the test system is Streptococcus pneumoniae. Description: Antibacterial activity against cotrimoxazole susceptible Streptococcus pneumoniae by microdilution method.
For experiment [3], the system named is Streptococcus pneumoniae. Description: Antibacterial activity against cotrimoxazole resistant Streptococcus pneumoniae by microdilution method.
Experiment [4] relates to Streptococcus pneumoniae. The experiment can be described thus: Antibacterial activity against amoxicillin-clavulanic acid susceptible Streptococcus pneumoniae by microdilution method.
Experiment [5] relates to Streptococcus pneumoniae. The experiment can be described thus: Antibacterial activity against penicillin intermediate Streptococcus pneumoniae by microdilution method.
For experiment [6], the system named is Streptococcus pneumoniae. Description: Antibacterial activity against azithromycin susceptible Streptococcus pneumoniae by microdilution method.
Experiment [7] has as its system Streptococcus pneumoniae. The experiment can be described thus: Antibacterial activity against multidrug resistant Streptococcus pneumoniae by microdilution method.
The test system of experiment [8] is Streptococcus pneumoniae. The experiment can be described thus: Antibacterial activity against amoxicillin-clavulanic acid resistant Streptococcus pneumoniae by microdilution method.
The subject of experiment [9] is Streptococcus pneumoniae. Description: Antibacterial activity against Streptococcus pneumoniae by microdilution method.
The test system of experiment [10] is Streptococcus pneumoniae. Description: Antibacterial activity against azithromycin resistant Streptococcus pneumoniae by microdilution method.
Experiment [11] deals with Streptococcus pneumoniae. The experiment can be described thus: Antibacterial activity against cotrimoxazole intermediate Streptococcus pneumoniae by microdilution method.
Experiment [12] has as its system Streptococcus pneumoniae. Description: Antibacterial activity against Streptococcus pneumoniae ATCC 49619 by microdilution method.
The test system of experiment [13] is Streptococcus pneumoniae. Description: Antibacterial activity against penicillin resistant Streptococcus pneumoniae by microdilution method.
In experiment [14] the test system is Streptococcus pneumoniae. Description: Antibacterial activity against Streptococcus pneumoniae assessed as susceptible isolates by microdilution method.
For experiment [15], the system named is Streptococcus pneumoniae. Description: Antibacterial activity against Streptococcus pneumoniae assessed as resistant isolates by microdilution method.
The test system of experiment [16] is Streptococcus pneumoniae. The experiment can be described thus: Antibacterial activity against Streptococcus pneumoniae by microdilution method in presence of beta lactamase inhibitor clavulanic acid.
The subject of experiment [17] is Streptococcus pneumoniae. The experiment can be described thus: Antibacterial activity against Streptococcus pneumoniae assessed as susceptible isolates by microdilution method in presence of beta lactamase inhibitor clavulanic acid.
Experiment [18] concerns Streptococcus pneumoniae. The experiment can be described thus: Antibacterial activity against Streptococcus pneumoniae assessed as resistant isolates by microdilution method in presence of beta lactamase inhibitor clavulanic acid.

Converted amounts (≈) assume the structure as drawn.

Consider `COc1cc(Cc2cnc(N)nc2N)c2cc(Cc3c(C(=O)N(C)C)[nH]c4ccc(Cl)cc34)oc2c1OC`, for which the MIC50 is no more than 0.015 µg/mL in experiment [1]; no more than 0.015 µg/mL in experiment [2]; 0.12 µg/mL (≈ 0.224 µM) in experiment [3]; no more than 0.015 µg/mL in [4]; 0.03 µg/mL (≈ 0.0561 µM) in experiment [5]; no more than 0.015 µg/mL in experiment [6]. Moreover, the MIC50 is 0.12 µg/mL (≈ 0.224 µM) in [7]; 0.06 µg/mL in [8]; 0.03 µg/mL (≈ 0.0561 µM) in experiment [9]; 0.06 µg/mL (≈ 0.112 µM) in experiment [10]; no more than 0.015 µg/mL in [11]; 0.06 µg/mL (≈ 0.112 µM) in experiment [13]. Besides, the MIC90 in experiment [1] is no more than 0.015 µg/mL; in [2], 0.03 µg/mL (≈ 0.0561 µM); in experiment [3], 0.25 µg/mL (≈ 0.467 µM); in experiment [4], 0.06 µg/mL; in experiment [5], 0.12 µg/mL (≈ 0.224 µM); in experiment [6], 0.12 µg/mL (≈ 0.224 µM). Further, the MIC90 turned out to be 0.25 µg/mL (≈ 0.467 µM) in [7]; 0.25 µg/mL in experiment [8]; 0.25 µg/mL (≈ 0.467 µM) in [9]; 0.25 µg/mL (≈ 0.467 µM) in experiment [10]; 0.06 µg/mL (≈ 0.112 µM) in experiment [11]; 0.25 µg/mL (≈ 0.467 µM) in experiment [13]. In addition, in experiment [12], the MIC is no more than 0.015 µg/mL.

Consider `CC1(C)S[C@@H]2[C@H](NC(=O)[C@H](N)c3ccc(O)cc3)C(=O)N2[C@H]1C(=O)O` [AMOXICILLIN], for which the Activity is on record as 55% in experiment [14], 39.7% in experiment [15], 55% in [17] and 39.1% in experiment [18]. Also, the results for the MIC50 in experiment [16] and in [9] were 0.25 µg/mL and 0.25 µg/mL (≈ 0.684 µM), respectively. The MIC90 in experiment [16] was 4 µg/mL; in experiment [9] it was 4 µg/mL (≈ 10.9 µM).

For the compound `CC[C@H]1OC(=O)[C@H](C)[C@@H](O[C@H]2C[C@@](C)(OC)[C@@H](O)[C@H](C)O2)[C@H](C)[C@@H](O[C@@H]2O[C@H](C)C[C@H](N(C)C)[C@H]2O)[C@](C)(O)C[C@@H](C)CN(C)[C@H](C)[C@@H](O)[C@]1(C)O` [AZITHROMYCIN], the Activity in experiment [14] is on record as 62.3%. In addition, the Activity in experiment [15] was found to be 37.7%. In experiment [9], this compound displayed an MIC50 of 0.12 µg/mL (≈ 0.16 µM) and an MIC90 greater than 8 µg/mL.

Turning to `COc1c(N2CCNC(C)C2)c(F)cc2c(=O)c(C(=O)O)cn(C3CC3)c12` (stereo not given) [GATIFLOXACIN], the Activity in experiment [14] is recorded as 98.7%. Moreover, the Activity in [15] was determined as 0.7%. In experiment [9], this compound returned an MIC50 of 0.25 µg/mL (≈ 0.666 µM) and an MIC90 of 0.25 µg/mL (≈ 0.666 µM).

For `CC1(C)S[C@@H]2[C@H](NC(=O)Cc3ccccc3)C(=O)N2[C@H]1C(=O)O` [PENICILLIN G], the Activity in experiment [14] is recorded as 41.7%; in [15], 38.4%. In [9], this compound came in with an MIC50 of 0.25 µg/mL (≈ 0.748 µM). The compound also showed an MIC90 in experiment [9] of 2 µg/mL (≈ 5.98 µM).

With `CC[C@H]1OC(=O)[C@H](C)C(=O)[C@H](C)[C@@H](O[C@@H]2O[C@H](C)C[C@H](N(C)C)[C@H]2O)[C@](C)(OC)C[C@@H](C)C(=O)[C@H](C)[C@H]2N(CCCCn3cnc(-c4cccnc4)c3)C(=O)O[C@]12C` [TELITHROMYCIN], the Activity was 98% in [14] and 0.7% in experiment [15]. The compound further showed an MIC90 in experiment [9] of 0.5 µg/mL (≈ 0.616 µM).

On to `COc1cc(Cc2cnc(N)nc2N)cc(OC)c1OC` [TRIMETHOPRIM], for which, in [9], the MIC50 stood at 4 µg/mL (≈ 13.8 µM) and the MIC90 was greater than 32 µg/mL.
